Where two headings read alike, the source gives them in different places. Numbered stars: 1 amine (or outer) side, 2 acyl side, 3 side chain; on linkers, the order of the positions; unused ones are H or OH. Bridge positions count the residues as written; N and C are the ends. Square brackets hold non-standard residues; d marks the D form. Peptide text beside a SMILES is read from it. I, II: the chains in the order shown. Actinocin(9to1) = Cc1c2oc3c(C)ccc(C(=O)[*:1])c3nc-2c(C(=O)[*:2])c(N)c1=O; NMeV = CN[C@H](C(=O)O)C(C)C; Sar = CNCC(=O)O
Format: in vivo, mice
Details: for Kidney AUC0–6 h / Kidney AUC0–∞ / Kidney Cmax / Liver AUC0–6 h / Liver AUC0–∞ / Liver Cmax / Brain peak area / Kidney concentration / Liver concentration / Brain AUC0–6 h (peak area) / Brain Cmax (peak area): 0.5 mg/kg i.v.; for Brain peak area / Kidney concentration / Liver concentration: per gram of tissue

Kidney AUC0–6 h (Abcb1a/1b−/− mice): 35,381 μg/L h
Kidney AUC0–∞ (Abcb1a/1b−/− mice): 46,701 μg/L h
Kidney Cmax (Abcb1a/1b−/− mice): 13,207 ± 1025 μg/L
Liver AUC0–6 h (Abcb1a/1b−/− mice): 4616 ng·h/mL
Liver AUC0–∞ (Abcb1a/1b−/− mice): 6594 ng·h/mL
Liver Cmax (Abcb1a/1b−/− mice): 2323 ± 239 ng/mL
Brain peak area (Abcb1a/1b−/− mice, 0.25 h): 1134 ± 635 pa
Kidney concentration (Abcb1a/1b−/− mice, 0.25 h): 13,207 ± 1025 μg/L
Liver concentration (Abcb1a/1b−/− mice, 0.25 h): 2323 ± 239 µg/L
Brain peak area (Abcb1a/1b−/− mice, 0.5 h): 1420 ± 521 pa
Kidney concentration (Abcb1a/1b−/− mice, 0.5 h): 13,163 ± 2521 μg/L
Liver concentration (Abcb1a/1b−/− mice, 0.5 h): 1367 ± 133 µg/L
Brain peak area (Abcb1a/1b−/− mice, 2 h): 912.7 ± 461 pa
Kidney concentration (Abcb1a/1b−/− mice, 2 h): 5327 ± 1257 µg/L
Liver concentration (Abcb1a/1b−/− mice, 2 h): 737 ± 172 µg/L
Brain peak area (Abcb1a/1b−/− mice, 6 h): 1383 ± 439 pa
Kidney concentration (Abcb1a/1b−/− mice, 6 h): 2957 ± 872 µg/L
Liver concentration (Abcb1a/1b−/− mice, 6 h): 407 ± 9 µg/L
Brain AUC0–6 h (peak area) (Abcc2−/− mice): 3785 pa/g h
Brain Cmax (peak area) (Abcc2−/− mice): 1039 ± 181 pa
Kidney AUC0–6 h (Abcc2−/− mice): 33,079 μg/L h
Kidney AUC0–∞ (Abcc2−/− mice): 48,799 μg/L h
Kidney Cmax (Abcc2−/− mice): 13,107 ± 2318 μg/L
Liver AUC0–6 h (Abcc2−/− mice): 4445 ng·h/mL
Liver AUC0–∞ (Abcc2−/− mice): 5516 ng·h/mL
Liver Cmax (Abcc2−/− mice): 1540 ± 356 ng/mL
Brain peak area (Abcc2−/− mice, 0.25 h): 972 ± 455 pa
Kidney concentration (Abcc2−/− mice, 0.25 h): 13,107 ± 2318 μg/L
Liver concentration (Abcc2−/− mice, 0.25 h): 1317 ± 302 µg/L
Brain peak area (Abcc2−/− mice, 0.5 h): 1039 ± 181 pa
Kidney concentration (Abcc2−/− mice, 0.5 h): 10,593 ± 944 μg/L
Liver concentration (Abcc2−/− mice, 0.5 h): 1540 ± 356 µg/L
Brain peak area (Abcc2−/− mice, 2 h): 424.3 ± 120 pa
Kidney concentration (Abcc2−/− mice, 2 h): 4987 ± 161 µg/L
Liver concentration (Abcc2−/− mice, 2 h): 787 ± 99 µg/L
Brain peak area (Abcc2−/− mice, 6 h): 733 ± 470 pa
Kidney concentration (Abcc2−/− mice, 6 h): 3410 ± 527 µg/L
Liver concentration (Abcc2−/− mice, 6 h): 303 ± 128 µg/L
Brain AUC0–6 h (peak area) (WT mice): 2943 pa/g h
Brain Cmax (peak area) (WT mice): 1071 ± 217 pa
Kidney AUC0–6 h (WT mice): 29,552 μg/L h
Kidney AUC0–∞ (WT mice): 35,754 μg/L h
Kidney Cmax (WT mice): 13,323 ± 3960 μg/L
Liver AUC0–6 h (WT mice): 4473 ng·h/mL
Liver AUC0–∞ (WT mice): 5387 ng·h/mL
Liver Cmax (WT mice): 1810 ± 155 ng/mL
Brain peak area (WT mice, 0.25 h): 1071 ± 217 pa
Kidney concentration (WT mice, 0.25 h): 13,323 ± 3960 μg/L
Liver concentration (WT mice, 0.25 h): 1810 ± 155 µg/L
Brain peak area (WT mice, 0.5 h): 775.3 ± 127 pa
Kidney concentration (WT mice, 0.5 h): 10,713 ± 2498 μg/L
Liver concentration (WT mice, 0.5 h): 1593 ± 167 µg/L
Brain peak area (WT mice, 2 h): 501 ± 28.9 pa
Kidney concentration (WT mice, 2 h): 4693 ± 415 µg/L
Liver concentration (WT mice, 2 h): 747 ± 165 µg/L
Brain peak area (WT mice, 6 h): 309 ± 156 pa
Kidney concentration (WT mice, 6 h): 1970 ± 150 µg/L
Liver concentration (WT mice, 6 h): 287 ± 40 µg/L
Act D accumulation over 6 h in the kidneys higher than the liver (irrespective of transporter knockout genotype): 6.6- to 7.7 fold
SMILES: Cc1c2oc3c(C)ccc(C(=O)N[C@@H]4C(=O)N[C@H](C(C)C)C(=O)N5CCC[C@H]5C(=O)N(C)CC(=O)N(C)[C@@H](C(C)C)C(=O)O[C@@H]4C)c3nc-2c(C(=O)N[C@@H]2C(=O)N[C@H](C(C)C)C(=O)N3CCC[C@H]3C(=O)N(C)CC(=O)N(C)[C@@H](C(C)C)C(=O)O[C@@H]2C)c(N)c1=O [Act D, actinomycin D] (I: T[dV]P[Sar][NMeV] / II: T[dV]P[Sar][NMeV]; ester I:1-I:C, II:1-II:C; linker I:N-II:N via Actinocin(9to1))
